A short description of data set [1]: Solubility in aqueous media.
For data set [2] the following is noted: two clinical studies, small patient series; cited from earlier work.
The subject of data set [3] is HMC3 cells. The experiment in a line: In vitro cytotoxicity (LDH release assay) on non-malignant HMC3 cells. In kind it is cell-based, human. The following applies: 24 hours at 37° C. The source says:
(§1) Two colorimetric assays were established to monitor cytotoxicity in response to the tested drugs, one measuring the release of lactate dehydrogenase (LDH) from cells, a well-established marker for cell toxicity, and the other measuring the activity of mitochondrial […], an indicator of cell viability, by the reduction of the soluble tetrazolium dye MTT. […] Cells were also monitored by direct microscopic observation. Controls included cells treated with medium without drug and cells treated with Camptothesin, a known cytotoxic agent, as positive control. Incubation with drug concentrations was carried out for 24 hours at 37° C.
(§2) DAB was tested in vitro under ideal conditions in absence of any competing physiological amino acid allowing low concentrations of 0.5, 1, 2, 3, 4, 5, 6, 8, 12, and 16 mM.
(§3) Prazosin was tested at concentrations of 0.1, 0.5, 1, 2, 5, 10, 20, 30 and 50 μM.
In general terms: LDH in the medium is a marker of cell lysis.

In data set [4] the test system is LN-18 cells. The data set is described as follows: In vitro cytotoxicity (LDH release assay) on LN-18 glioma cells. The following applies: for IC50: Homo sapiens, LN-18, 24 h.
From the text: as §1, §2, §3
DAB was used at concentrations of 1, 2 and 4 mM. Each of these concentrations was tested alone or in combination with 1, 2 or 4 μM of Prazosin, i.e. the combinations tested were the following: • 1 mM DAB+1 μM Prazosin • 1 mM DAB+2 μM Prazosin • 1 mM DAB+4 μM Prazosin • 2 mM DAB+1 μM Prazosin • 2 mM DAB+2 μM Prazosin • 2 mM DAB+4 μM Prazosin • 4 mM DAB+1 μM Prazosin • 4 mM DAB+2 μM Prazosin • 4 mM DAB+4 μM Prazosin

Data set [5] has as its system human glioma cells. The following applies: cited from earlier work.
Data set [6] deals with glioblastoma. The note with it: mouse xenografts; cited from earlier work.

Read-outs that look alike come from different tables or passages of the source.

As usually defined, the IC50 is the concentration that gives 50% inhibition.

As for `NCC[C@H](N)C(=O)O` [DAB, L-2,4 diaminobutyric acid], the “solubility in aqueous media” value in data set [1] is on record as “soluble”. In addition, the clinical benefit result in data set [2] is recorded as “failed to demonstrate significant clinical benefit”. Further, in data set [3], the “IC50 against non-malignant HMC3 cells” value was “no IC50 could be determined” and the “toxicity towards non-malignant HMC3 cells (in words)” value was “weak toxicity”. In addition, the “cytotoxic effect against glioma cell line LN-18 (in words)” value in data set [4] (24 hours at 37° C.) was “strong cytotoxic effect”. In data set [4] (read-out: IC50, cytotoxic effect against glioma cell line LN-18), the IC50 came out at 3800 µM. Besides, the “antitumoral activity in vitro” value in data set [5] was “antitumoral activity”.

Turning to `COc1cc2nc(N3CCN(C(=O)c4ccco4)CC3)nc(N)c2cc1OC` [Prazosin], the glioblastoma growth result in data set [6] is on record as “inhibit glioblastoma growth”. For the same molecule, in data set [3], the “IC50 against non-malignant HMC3 cells” value is “no IC50 could be determined” and the “toxicity towards non-malignant HMC3 cells (in words)” value is on record as “little cytotoxicity”. In addition, in data set [4], the “cytotoxic effect against glioma cell line LN-18 (in words)” value is listed as “strong cytotoxic effect”. Besides, the 50% inhibitory concentration (IC50) in data set [4] (read-out: IC50, cytotoxic effect against glioma LN-18 line) amounted to 3.4 µM.
